The values below are quoted from earlier work in paper PMC8250858, “A Systematic Study of the Stability, Safety, and Efficacy of the de novo Designed Antimicrobial Peptide PepD2 and Its Modified Derivatives Against Acinetobacter baumannii” (Frontiers in Microbiology, 2021).

One series relates to A. baumannii 19606. Also noted: method as in Feng et al., 2013. As to conditions: ref Feng et al., 2013; cited from earlier work.
The next series concerns A. baumannii. Also on record: method as in Sato et al., 2018. Particulars: ref Sato et al., 2018; cited from earlier work.
The subject of series [1] is 20 strains of A. baumannii. Also on record: method as in Huang et al., 2012. As to conditions: ref Huang et al., 2012; cited from earlier work.
For series [2], the system named is carbapenem-resistant A. baumannii. Also on record: method as in Huang et al., 2012. As to conditions: intraperitoneal injection twice a day for 3 days; ref Huang et al., 2012; cited from earlier work.

On to “LL-37: natural human antimicrobial peptide”, for which the “MIC against A. baumannii 19606” value with A. baumannii 19606 is 16 µg/mL.
On to colistin sulfate, for which, in the series on A. baumannii, the “MIC against A. baumannii” value is 2 µg/mL.
Consider C(LLKK)2C, for which the “MIC against 20 strains of A. baumannii” value in series [1] was 40 to 75 µg/mL. Moreover, in series [2], the “Mice rescued” value is reported as “rescued half of the mice”.
